Measured values from patent US20220213198A1, “METHOD OF TREATMENT” (The Council of the Queensland Institute of Medical Research, priority 2019, published 2022).

Legend:
[1] = molecular target: T1, surface MR1 on mouse tumor cell lines (Mus musculus, UniProt Q8HWB0); test: MR1 surface expression on mouse tumor cell lines by flow cytometry; assay type: cell-based; settings: for MR1 cell surface expression: 100 nM, 4 hours
T1 construct: endogenous in cells
Method: (§1) FIG. 2. Up-regulation of MR1 on B16F10 cells increases lung metastases that is dependent on MAIT cells. (A) The schematic and timeline of expanding MAIT cells from splenocytes derived from C57BL/6 WT mice with IL-2 and 5-OP-RU, for sorting and adoptive transfer into tumor-bearing mice. (B, C) Groups of WT or MR1^−/− or Rag2cγ^−/− mice (n=5-6/group) were injected i.v. with (B) 1×10^5 or (C) 1×10^4 B16F10 melanoma cells. In some groups, sorted MAIT or T conventional cells (cT) (non-MAIT αβ^+ T cells) (2×10^5 cells/mouse) from C57BL/6 (B) WT or (C) TCRδ^−/− mice were i.v. injected into the indicated groups of mice one day before tumor inoculation. (C) One group of mice received i.v injection of media alone as a control. (B, C) On day 14 relative to tumor cell inoculation, lungs were harvested and the metastatic burden was quantified by counting colonies on the lung surface. Data presented as mean±SEM. (D) B16F10 or LWT1 melanoma cells were stimulated in vitro with DMSO or 5-OP-RU (100 nM) for 4 hours before cell surface MR1 expression was determined by flow cytometry. Groups of C57BL/6 WT or MR1^−/− mice (n=5-6/group) were i.v. injected with (E) 1×10^5 B16F10 or (F) 5×10^5 LWT1 cells melanoma cells pulsed with DMSO or 5-OP-RU (100 nM, 4 hours). Fourteen days later relative to tumor cell inoculation, lungs were harvested and the metastatic burden was quantified by counting colonies on the lung surface. Data presented as mean±SEM. Experiments performed once for (B, C, F) and three times for (D, E) with one representative experiment shown. Significant differences between groups as indicated by crossbars were determined using a one-way ANOVA followed by Tukey's post-hoc test (B, E, F), *p<0.05, **p<0.01, ****p<0.0001
Naïve or tumor-bearing lung single-cell suspensions were generated as previously described (Blake et al., 2016) and incubated with anti-CD16/32 (2.4G2) to block Fc receptors on ice prior to surface staining with the antibodies. The following antibodies were used for FACs analysis: anti-CD45.2 (104), anti-TCRβ (H57-597), anti-NK1.1 (PK136), anti-NKp46 (29A1.4), anti-CD45R (B220, RA3-6B2), anti-F4/80 (BM8), anti-CD69 (H1.2F3) (all from BioLegend, eBioscience), and MR1 tetramers. For intracellular cytokine staining, cells were surface stained as described above and then fixed and permeabilized with a cytofix/cytoperm kit (BD Biosciences) followed by staining with anti-IFNγ (XMG1.2), anti-TNF (MP6-XT22), anti-IL-17A (TC11-18H10.1) or isotype (eBio299Arm) antibody (all from BioLegend). All data were collected on a Fortessa 4 flow cytometer (BD Biosciences) and analyzed with FlowJo v10 software (TreeStar, Inc.).
(§2) MR1 mRNA transcripts are present in different tissues and cell lines from mice and humans. […] In contrast, whether mouse tumor cell lines express MR1 has not previously been examined. […] Basally, the level of MR1 was almost undetectable on the surface of all tumor cell lines examined (FIG. 2D). […] The kinetics of MR1 upregulation on B16F10 cells was similar to what was previously reported for human C1R cells (B-cell lymphoblastoid cell line) (McWilliam et al., 2016). […] Next, the impact of up-regulation of MR1 on B16F10 or LWT1 prior to i.v injection to WT or MR1−/− mice on the number of lung metastases was assessed.

[2] = molecular target: T2, MR1 on human cell lines (Homo sapiens, UniProt Q95460); test: MR1 surface expression on human cell lines after ligand incubation; assay type: cell-based; settings: range of human cell lines, after incubation (not shown)
T2 construct: endogenous in cells
Description: as §2

[3] = tested on: LWT1 melanoma cells; test: LWT1 experimental lung metastasis model; assay type: in vivo, mouse; settings: day 14
Method: as §1, with “Groups of C57BL/6 WT or MR1^−/− mice (n=5-6/group) were i.v. injected with (E) 1×10^5 B16F10 or (F) 5×10^5 LWT1 cells melanoma cells pulsed with DMSO or 5-OP-RU (100 nM, 4 hours).” left out, “Data presented as mean±SEM. Experiments performed once for (B, C, F) and three times for (D, E) with one representative experiment shown.” left out
FIG. 6. […] (A-D) On day 14, lungs were harvested and the metastatic burden was quantified by counting colonies on the lung surface. […] (E, F), Mice were monitored for tumor growth (calculated by the product of 2 perpendicular axes). […] Significant differences between groups as indicated by crossbars were determined by a one-way ANOVA followed by Tukey's post-hoc test (A, B) or a Mann-Whitney test (C, […]), *p<0.05, **p<0.01, ***p<0.001.
The indicated numbers of B16F10 and LWT1 cells were injected intravenously (i.v.) into the tail vein of WT or gene-targeted mice. […] Lungs were harvested on day 14, and surface tumor nodules were counted under a dissection microscope. […]

[4] = tested on: MAIT cells; test: In vitro co-culture of purified splenic MAIT or conventional T cells with ligand-treated B16F10 cells; assay type: cell-based, mouse

T2 sequence (Q95460 23-341): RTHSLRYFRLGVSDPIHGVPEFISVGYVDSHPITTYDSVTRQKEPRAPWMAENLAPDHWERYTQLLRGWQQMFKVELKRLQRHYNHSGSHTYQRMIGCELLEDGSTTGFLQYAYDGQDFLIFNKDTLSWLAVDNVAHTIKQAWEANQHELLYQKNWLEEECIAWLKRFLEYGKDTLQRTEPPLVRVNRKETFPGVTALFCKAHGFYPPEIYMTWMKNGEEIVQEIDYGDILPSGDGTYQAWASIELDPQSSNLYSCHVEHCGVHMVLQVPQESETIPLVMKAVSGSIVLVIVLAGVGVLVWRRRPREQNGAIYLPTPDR

Row | lowest ligand concentration that upregulated MR1 ([1]; B16F10, dose titration) [nM] | MR1 cell surface expression ([1]; B16F10 melanoma cells) | MR1 cell surface expression ([1]; LWT1 melanoma cells) | MR1 cell surface expression ([1]; MC38 parental or OVA, HcMel3, HcMel12, SM1WT1, MCA1956 cells) | MR1 cell surface expression ([1]; RM-1, 4T1.2 or 3LL carcinoma cells) | MR1 expression [2] | Molecule | number of lung metastases ([3]; MR1-/- mice i.v. injected with pre-treated LWT1, vs DMSO-treated) | number of lung metastases ([3]; WT mice i.v. injected with LWT1 pre-treated 100 nM 4 h, vs DMSO-treated) | cytokine production ([4]; conventional T cells with treated vs DMSO-treated B16F10) | number of treated CTV-labeled B16F10 cells ([4]; following co-culture with MAIT cells) | IFNγ, IL-17A and TNF production ([4]; purified splenic MAIT cells with treated vs DMSO-treated B16F10) | LWT1 lung metastases ([3]; 250 μg/mouse i.p. days -1, 0 and 3, vs cIg)
1 | 10 | substantially upregulated | substantially upregulated | upregulated to a varying extent | not upregulated | became upregulated | CC(=O)C=Nc1c(NC[C@H](O)[C@H](O)[C@H](O)CO)[nH]c(=O)[nH]c1=O [5-OP-RU] | this increase was lost | significantly increased | no increase in cytokine production | decrease | produced more | –
2 | – | – | – | – | – | – | 8F2.F9: anti-MR1 blocking antibody from hybridoma clone 8F2.F9, IgG1 isotype; heavy chain SEQ ID NO: 14, light chain SEQ ID NO: 18 (antibody, listed as Mus musculus, V domains shown) VH: MKFSWVIFFLMAVVTGVNSEVQLQQSVAELVRPGASVKLSCTASGFNIKNTYMHWVKKRPELGLEWIGRIDPANGNTNFAPKFQGKATITADTSSNTAYLQLSSLTSEDTAIYYCPRGSGNYYFDYWGQGTTLTVSS VL: MSSAQFLGLLLLCFQGTRCDIQMTQTTSSLSASLGDRVTISCRASQDISNYLNWYQQKPDGPVKLLIYYTSRLHSGVPSRFSGSGSGTDYSLTINNLAQEDIATYFCQQGNTLPYTFGGGTKLEIK | – | – | – | – | – | significantly reduced
